In paper PMC2481421, “Gene expression response in target organ and whole blood varies as a function of target organ injury phenotype” (Genome Biology, 2008):
Where “and” joins values, the source holds several entries; their conditions need not be identical. Equal entries are not always repeated. Entries after “also recorded” stand apart in the source; their conditions may differ.

Assays:
[1] = system: liver; experiment: Liver histopathology (H&E sections of left liver lobe, severity graded) after a single dose
Protocol: The animals were acclimated for 14 days and observed for absence of disease.
Doses were determined with pilot experiments. For each chemical, doses that elicited a sub-toxic ('low'), a moderately toxic ('medium') or a overtly toxic ('high') response 24 hours after treatment were selected. […] For each compound, control animal groups were treated with vehicle alone. All animals were fasted for 12-18 hours prior to exposure. Groups of four to six animals were dosed between 8:30 and 9:30 a.m.; thereafter, feed was provided ad libitum. After 6, 24 or 48 hours of treatment, animals were anesthetized by isoflurane anesthesia. Whole blood was collected via retro-orbital plexus for hematology and gene expression analysis. Serum was collected for clinical chemistry. The animals were euthanized while under anesthesia by cervical dislocation and necropsied within 4 minutes of sacrifice. The left liver lobe was promptly removed and two defined cross sections were placed in 10% neutral buffered formalin for subsequent histopathology.
The cross sections that were fixed by immersion in 10% neutral buffered formalin (see 'In-life studies' section above) were transferred to histology grade alcohol for 18-24 hours after necropsy. Tissues were then processed, embedded in paraffin, sectioned at 5 microns, and stained with hematoxylin and eosin. A pathologist completed the initial microscopic evaluation of each liver sample for a given compound. […] An independent pathology quality assessment review was performed by a second pathologist on the initial histopathological findings.

[2] = In-life observations: body weight, gross findings before and at necropsy; assay type: in vivo, Male Fischer 344/N rats; conditions: individual animals; for Initial Body Wt.: 48 hours group, baseline weight
Protocol: Doses were determined with pilot experiments. […] Serum was collected for clinical chemistry.

[3] = 15 mg/kg, gavage in corn oil, 48 hours after single dose
[4] = 50 mg/kg, gavage in corn oil, 48 hours after single dose
[5] = 150 mg/kg, gavage in corn oil, 48 hours after single dose
[6] = Gavage, corn oil, 15 mg/kg, 6 hours
[7] = Gavage, corn oil, 15 mg/kg, 24 hours
[8] = Gavage, corn oil, 50 mg/kg, 6 hours
[9] = Gavage, corn oil, 50 mg/kg, 24 hours
[10] = Gavage, corn oil, 150 mg/kg, 6 hours
[11] = Gavage, corn oil, 150 mg/kg, 24 hours

Compound: CC(=N)S [Thioacetamide]
- biliary hyperplasia ([1]; 48 hours): evoked biliary hyperplasia
- extent of hepatocellular necrosis, amount of inflammatory cell infiltrates and/or indications of hepatocellular repair (mitosis) across animals ([1]; high dose, 48 hour): variability
- Primary site of livery injury ([1]; rat, single administration): Centrilobular
- Gross Findings ([2]; 15 mg/kg, gavage in corn oil, 48 hours after single dose, at necropsy): No Gross Findings
- Clin/Ob Prior to Necropsy [2, 3]: Ungroomed appearance
- Final Body Wt. [2, 3]: 264.10 g and 257.60 g and 259.00 g and 263.10 g
- Gross Findings ([2]; 50 mg/kg, gavage in corn oil, 48 hours after single dose, at necropsy): Liver left and median lobes rough surface mild; also recorded: Liver left lobe rough surface mild, median lobe pale rough surface mild; also recorded: Liver left and median lobes pale, mildly firm, rough surface
- Clin/Ob Prior to Necropsy [2, 4]: Piloerection; also recorded: Ungroomed appearance
- Final Body Wt. [2, 4]: 233.00 g and 228.70 g and 248.40 g and 236.30 g
- Gross Findings ([2]; 150 mg/kg, gavage in corn oil, 48 hours after single dose, at necropsy): Liver left and median lobes pale, firm, rough surface mild; Kidney red medulla; also recorded: Liver left and median lobes pale, minimally firm, rough surface mild
- Clin/Ob Prior to Necropsy [2, 5]: Ungroomed appearance; piloerection; hunched posture; red fur discoloration (cranial dorsum); also recorded: Ungroomed appearance; piloerection; hunched posture; red nasal discharge
- Final Body Wt. [2, 5]: 230.90 g and 232.40 g and 228.10 g and 228.50 g
- Clin/Ob Prior to Necropsy [2, 6]: Normal
- Gross Findings [2, 6]: No Gross Findings
- Clin/Ob Prior to Necropsy [2, 7]: Normal
- Final Body Wt. [2, 7]: 261.90 g and 245.50 g and 259.10 g and 269.60 g
- Gross Findings [2, 7]: No Gross Findings; also recorded: Liver median lobe rough surface minimal
- Clin/Ob Prior to Necropsy [2, 8]: Normal
- Gross Findings [2, 8]: Liver left lobe mottled; also recorded: No Gross Findings
- Clin/Ob Prior to Necropsy [2, 9]: Ungroomed appearance; also recorded: Normal
- Final Body Wt. [2, 9]: 231.40 g and 233.80 g and 239.30 g and 227.90 g
- Gross Findings [2, 9]: No Gross Findings; also recorded: Liver left lobe rough surface mild, median lobe rough surface minimal; also recorded: Liver left lobe rough surface minimal, median lobe rough surface mild
- Clin/Ob Prior to Necropsy [2, 10]: Normal
- Gross Findings [2, 10]: Liver left lobe mottled; also recorded: No Gross Findings
- Clin/Ob Prior to Necropsy [2, 11]: Normal; also recorded: Red nasal discharge
- Final Body Wt. [2, 11]: 222.50 g and 236.40 g and 240.60 g
- Gross Findings [2, 11]: Liver left and median lobes rough surface mild; also recorded: Liver left lobe mottled rough surface minimal, median lobe rough surface mild
- Initial Body Wt. ([2]; thioacetamide 15 mg/kg, gavage in corn oil): 244.40 g and 241.70 g and 243.00 g and 244.10 g
- Initial Body Wt. ([2]; thioacetamide 50 mg/kg, gavage in corn oil): 243.30 g and 241.60 g and 248.50 g and 241.50 g
- Initial Body Wt. ([2]; thioacetamide 150 mg/kg, gavage in corn oil): 240.40 g and 246.90 g and 242.10 g and 241.40 g
